Experimental data as given in patent US9962341B2, “Active pharmaceutical ingredient (API) comprising cannabinoids for use in the treatment of cancer” (GW Pharma Limited, priority 2014, dated 2018).
Like-named read-outs stand apart in the source and are kept apart here.

Tested on: BT474
Assay: Cell viability (CellTiter-Blue, 72 h), phytocannabinoids alone and in combination, BT474 breast cancer cells
Format: cell-based
Conditions: for effect (but only 50% effect): extent of effect reached; for IC50: Homo sapiens
Description: The cell lines tested in this Example were as follows. Breast cancer: MDA-MB-231; SK-BR3; and BT474. Liver cancer: HepG2.
The phytocannabinoids were tested alone and in various ratioed combinations in media containing final concentrations of 10% and 1% foetal bovine serum at 72 h for the breast and prostate cancer lines and 1% foetal bovine serum for the liver cancer line HepG2.
Each tumour cell line was maintained in vitro in RPMI 1640+10% heat inactivated FBS and 2 mM L-glutamine (growth media) at 37° C. in 5% CO2 and humidified conditions. The cells were harvested, washed, re-suspended into growth medium and counted. The cells were re-suspended into assay media (RPMI 1640+5% heat inactivated FBS+ and 2 mM L-glutamine) at 8×104-2×10^5 cells/ml (dependent upon cell type) and plated into the middle 240 wells of 384 well tissue culture plates (Corning CellBind, black-wall plates) 12.5 μl/well aliquots; 62.5 μl of growth media was aliquoted into the outer wells. There were 4 plates for each cell line. The plates were incubated overnight at 37° C., in 5% humidified CO2.
The phytocannabinoid test compounds were prepared in 100% DMSO vehicle at a stock concentration of 10 mM.
Starting with the 10 mM stock, the compounds were diluted to 125 μM in FBS-free growth media.
These were diluted in FBS-free growth media to 125 μM before serial dilution.
5 volumes of CBD 10 mM stock was added to 1 volume of the other agent (also at 10 mM) and 4 volumes of DMSO. This made a final concentration of 5 mM:1 mM. This was then diluted in FBS-free growth media so the top concentration of CBD would be 125 μM (before serial dilution). Each compound and compound combination stock was serially diluted in FBS-free growth media (containing 1.25% v/v DMSO) from 125 μM to 41.7, 13.89, 4.63, 1.54, 0.514, 0.171, 0.057 and 0.019 μM (1.25× final assay concentrations). Vehicle was prepared at equivalent dilutions in assay media. The top final concentration of compound in the assay was always 100 μM so CBD5:1CBG was 100 μM CBD and 20 μM CBG.
Taxotere SOC was prepared at a stock concentration of 1 mM in 100% DMSO. Taxotere was serially diluted from the stock solution into FBS-free growth media to 12.5 μM, then serially diluted in FBS-free growth media containing 1.25% DMSO to 4.17, 1.39, 0.46, 0.154, 0.051, 0.017, 0.006, 0.002 μM (1.25× final assay concentrations).
This was then serially diluted in FBS-free growth media to 0.417, 0.139, 0.046, 0.0154, 0.0051, 0.0017, 0.0006, 0.0002 μM (1.25× final assay concentrations). This was plated as a positive control for the SKBR3 & BT474 cell lines. 50 μl per well of compound/vehicle dilutions was added to the plates in replicates of 6. Where applicable total volume in the well was made up to 62.5 μl with assay media.
The plates were incubated for 72 h at 37° C. in 5% humidified CO2. To develop the plates, at 72 h, 10 μl of CellTiter-Blue™ reagent was added to each test/blank well. The plates were incubated at 37° C., 5% humidified CO2. Fluorescence was measured using a Flex II Station plate reader (570 nm excitation wavelength, 600 nm emission wavelength, 590 nm cut-off) after 3 h.
The experimental conditions were the same as the experiment above, with the same compound dilutions and volumes for plating but using growth media containing 10% FBS rather than FBS-free media.
The raw data values expressed in relative fluorescent units were normalised to the vehicle for each individual plate and any reduction in fluorescence indicated a decrease in viability.
The data were analysed in GraphPad PRISM using a non-linear sigmoidal plot with variable slope (asymmetric five point linear regression) and where possible an IC50 value for each single compound and combination was generated.
For the calculation, raw data values expressed in relative fluorescent units were normalised to the vehicle for each individual plate (set as 0%) and the reduction in fluorescence calculated as an increase in inhibition of viability.

[1] = BT-474, 72 h, BT474, 1% FBS, 72 h, read-out: IC50 values
[2] = BT-474, 72 h, BT474, 10% FBS, 72 h, read-out: IC50 values
[3] = BT-474, BT474, 1% FBS, Calcusyn median-effect analysis, read-out: Dm (median effect dose)

SMILES | effect (but only 50% effect) (BT474, 1% FBS) | effect (but only 50% effect) (BT474, 10% FBS) [% effect)] | IC50 [1] [µM] | IC50 [2] [µM] | IC50 [3] [µM]
CC(=O)O[C@@]12CO[C@@H]1C[C@H](O)[C@@]1(C)C(=O)[C@H](O)C3=C(C)[C@@H](OC(=O)[C@H](O)[C@@H](NC(=O)OC(C)(C)C)c4ccccc4)C[C@@](O)([C@@H](OC(=O)c4ccccc4)[C@H]21)C3(C)C [Taxotere, Docetaxel, reference compound] | only 50% | 50 | < 0.001 | < 0.001 | 
CCCc1cc(O)c2c(c1)OC(C)(C)[C@@H]1CCC(C)=C[C@@H]21 [THCV, Tetrahydrocannabivarin] |  |  | 13.3 | 31 | 20.3
CCCCCc1cc(O)c(C/C=C(\C)CCC=C(C)C)c(O)c1C(=O)O [CBGA, Cannabigerolic acid] |  |  | 24.8 | ~100 | 27.9
C=C(C)[C@@H]1CCC(C)=C[C@H]1c1c(O)cc(CCCCC)c(C(=O)O)c1O [CBDA, Cannabidiolic acid] |  |  | 21.8 | > 100 | 43.3
C=C(C)[C@@H]1CCC(C)=C[C@H]1c1c(O)cc(CCCCC)cc1O [CBD, Cannabidiol] |  |  | 8 | 28 | 16.9
CCCCCc1cc(O)c(C/C=C(\C)CCC=C(C)C)c(O)c1 [CBG, Cannabigerol] |  |  | 7.9 | 37 | 14.8
